Source: PubChem BioAssay AID179 (DTP/NCI, 2004)
Where “and” joins values, the source holds several entries; their conditions need not be identical. Equal values may be shown once. Calls of active or inactive are those of the source.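 Rule for the calls: active = compounds giving half or more protection of infected cells from virus-caused growth loss, again on retest; inactive = the rest.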 Where a SMILES comes first, the peptide text is derived from it.

Tested on: CEM cells HIV-1 protection, formazan growth assay
Test: NCI AIDS Antiviral Assay
Details: for IC50: measured here: growth of uninfected CEM cells
Method in brief: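 Steps: treat uninfected and HIV-1-infected human CEM cells at five drug levels; quantify growth by soluble formazan; retest any compound reaching 50% protection; classify actives from the retest.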

SMILES	EC50 [µM]	IC50	outcome
Cc1ccc2nc(-c3ccc4nc(-c5ccc(N=Nc6ccc(-c7nc8ccc(-c9nc%10ccc(C)c(S(=O)(=O)O)c%10s9)cc8s7)cc6)cc5)sc4c3)sc2c1S(=O)(=O)O	19.5	> 200 µM	
CC(=O)Oc1ccc2cc(-c3ccc(OC(C)=O)c(OC(C)=O)c3)c(=O)oc2c1	> 200	64.6 µM	
CC1=C(C(=O)OC2CC3CCC2(C)C3(C)C)C2Nc3ccccc3N(C)C2O1 (stereo unspecified)	> 200	6.46 µM	
S=C(c1c[nH]c2ccccc12)N1CCOCC1	> 200	> 200 µM	
Oc1cccc2cc(Cl)cnc12	> 20	8.32 µM	
Cc1ccc([P+](Cc2ccccc2)(c2ccccc2)c2ccccc2)cc1	> 200	1.1 µM	
O=C1NC2OC(C(O)CO)C(O)C2O1 (stereo unspecified)	> 200	> 200 µM	
O=c1[nH]c2ccccc2c(O)c1N=Nc1ccc(S(=O)(=O)O)cc1	> 200	> 200 µM	
N#C/C(=C\c1cc(O)c(O)c(I)c1)C(=O)NCCCc1ccccc1	> 200	9.55 µM	
Cc1ccc(S(=O)(=O)OCC2COC(C)(C)O2)cc1 (stereo unspecified)	> 871	> 871 µM	
CC1(O)OC(=O)c2ccc3ccccc3c21 (stereo unspecified)	> 398	> 398 µM	
C/C(=N\N=C(N)N)C(CN(CC(C)C)CC(C)C)C(=O)Nc1ccc(C)cc1C (stereo unspecified)	> 17.8	> 17.8 µM	
N=c1c2ncn(C3OC(CO)CC3F)c2ncn1O (stereo unspecified)			inactive
CC1(C)C(=C(C#N)C#N)C(C)(C)C1=C(C#N)C#N	> 100	> 100 µM	
C=CC[P+](CC=C)(c1ccccc1)c1ccccc1	> 200	1.91 µM	
CSc1ccccc1NC1=NCCO1	> 200	> 200 µM	
CCOC(=O)C1=C(OS(=O)(=O)C(F)(F)F)CCCC1	> 200	> 200 µM	
O=S(=O)(O)c1cc(N=Nc2cc(S(=O)(=O)O)c3cccnc3c2O)ccc1CCc1ccc(N=Nc2cc(S(=O)(=O)O)c3cccnc3c2O)cc1S(=O)(=O)O	1.7	9.33 µM	
COc1cc(C2C(Cl)C(=O)N2NC(=O)c2ccc(N)cc2)ccc1O (stereo unspecified)	> 200	53.7 µM	
COC(=O)c1cc(=O)nc(N/N=C/c2ccc(C)cc2)s1	> 44.7	30.9 µM	
CC(CC(=O)N[C@H](C[C@@H](C)C(Cl)(Cl)Cl)c1nccs1)C(Cl)(Cl)Cl (stereo partly specified)			active
NC/C(=C\C(=O)O)c1ccc(Cl)cc1			inactive

SMILES	EC50 [µM]	IC50	outcome
N#CCC(=O)N/N=C(\C(=O)Nc1ccc(Cl)c(Cl)c1)C1CN(c2ccccc2)N=C1N (stereo unspecified)	> 79.4	> 79.4 µM	
CC(=O)N(C(C)=O)c1c(C)cc(-c2ccccc2)oc1=O	> 200	> 200 µM	
COC1=CC(=O)[C@]2(C)[C@H](C1=O)C(C)[C@H]2c1ccccc1 (stereo partly specified)	> 95.5	> 95.5 µM	
CC1=NNC(=O)C1C1CC(c2c[nH]c3ccccc23)=NN/C1=N\N (stereo unspecified)	> 100	> 100 µM	
Cc1cc(N)ccc1C=O	> 200	> 200 µM	
CCC(C)C(NC(=O)C(NC(=O)C(CC(N)=O)NC(=O)CN)C(C)O)C(=O)NC(C(=O)NC(C)C(=O)NC(C(=O)NC(CCC(=O)O)C(=O)NC(CC(C)C)C(=O)NC(CC(=O)O)C(=O)NC(C(=O)NC(Cc1ccc(O)cc1)C(=O)N1CCCC1C(=O)O)C(C)O)C(C)C)C(C)C (stereo unspecified) (H-GNTIVAVELDTYP-OH; configuration not given here)	30.9	50.1 µM	
O=C(O)C12C=CC(C1)c1ccccc12 (stereo unspecified)	> 251	> 251 µM	
COC1/C=C/OC2(C)Oc3c(C)c(O)c4c(O)c(c(C=NNC(=O)c5ccc(N)cc5)c(O)c4c3C2=O)NC(=O)/C(C)=C/C=C/C(C)C(O)C(C)C(O)C(C)C(OC(C)=O)C1C (stereo unspecified)	> 138	107 µM	
CC1C(=O)CC2C3(C)CCC2(C(C)C(=O)O)C(=O)C13 (stereo unspecified)	> 275	224 µM	
CCOC(=O)c1ccc(C(=O)C(C(C)=O)C(=O)OC(C)(C)C)n1C (stereo unspecified)	43.7	74.1 µM	
Cc1ccc2ccccc2c1CC1S(=O)(=O)OCCOS1(=O)=O	> 200	115 µM	
C=CCNC1=C(C(=O)OCC)C(=O)CO1	> 1170	> 1170 µM	
C1OC1[C@@H]1CC[C@@H]([C@@H]2CC[C@@H]([C@H]3CO3)O2)O1 (stereo partly specified)		39.8 µM	inactive
CC1=N/C(=C\c2ccc(Br)cc2)C(=O)O1	> 135	> 135 µM	
Cc1nc2c(N)n[nH]c(=O)n2n1	> 200	> 200 µM	
CCc1c(Cc2ccccc2)n(COCCCO[Si](C)(C)C(C)(C)C)c(=O)[nH]c1=O	> 200	10 µM	
Cc1ccc(-c2c(C#N)c(O)n(NS(=O)(=O)c3ccccc3)c(=O)c2C#N)cc1	> 200	> 200 µM	
CNC(=S)NNc1ncnc2c1ncn2-c1ccc(C)cc1	> 200	57.5 µM	
CCOCCN(Cc1ccc(CN(CCOCC)C(=O)C(Cl)Cl)cc1)C(=O)C(Cl)Cl	> 200	> 200 µM	
CCOC12SC(=Nc3ccc(C)cc3)NN1C(=S)N(C)N=C2C (stereo unspecified)	> 200	> 200 µM	
O=C(CN1CCCC1)Nc1ccc2c(c1)C1Oc3ccccc3CC1CO2 (stereo unspecified)			inactive
c1ccc(N=c2sc3ccccc3sc2=Nc2ccccc2)cc1	> 200	3.09 µM	

SMILES	EC50 [µM]	IC50	outcome
c1cc(-c2ncc3ccncc3n2)ccn1	> 64.6	> 64.6 µM	
COc1ccc(C(C2=C(C)C(=O)c3ccccc3C2=O)c2ccc(C(C)C)cc(=O)c2O)cc1 (stereo unspecified)			inactive
N#C/C(=C\c1cc(O)c(O)c([N+](=O)[O-])c1)C(=O)NCCCNC(=O)/C(C#N)=C/c1cc(O)c(O)c([N+](=O)[O-])c1	> 200	72.4 µM	
CCC12C=C(C(=O)OC)N3c4ccccc4C4CCN(CCC1)C2C43 (stereo unspecified)			inactive
Cn1c(=N)n[n+]([O-])c2ccccc21	> 200	3.47 µM and 4.07 µM	
CCN(CC)CCOC(=O)c1ccc(N)cc1	> 200	> 200 µM	
CC(=O)Oc1cc(-c2oc3cc(OC(C)=O)c(C4OC(CO)C(O)C(O)C4O)c(OC(C)=O)c3c(=O)c2O)c(OC(C)=O)cc1O (stereo unspecified)	> 200	> 200 µM	
CCN(CC)CCOCCn1c2c(c3ccccc31)CCCC2	> 200	30.9 µM	
COC(=O)/C(=N\N)C(C(=O)C(=O)Nc1cccc([N+](=O)[O-])c1)c1nc2ccc(C(=O)c3ccccc3)cc2[nH]c1=O (stereo unspecified)	> 64.6	> 64.6 µM	
Cc1ccc(S(=O)(=O)OC(c2ccccc2)c2ccccc2)cc1	> 15.5	10.5 µM	
O=c1c2c(sc3ccccc13)NCN(CCc1ccccc1)C2	17.4	40.7 µM	
O=[N+]([O-])c1cc(-c2nc(=S)[nH][nH]2)ccc1O	> 1050	257 µM	
CC1SCc2nc3ccccc3n21 (stereo unspecified)	> 200	> 200 µM	
NC1=NC(=O)C(CC(=O)Nc2ccc(Cl)cc2Cl)S1 (stereo unspecified)	> 794	372 µM	
CN(CC(=O)O)S(=O)(=O)c1ccc(F)cc1			inactive
NC(N)=NC(P(=O)(O)O)P(=O)(O)O	> 200	> 200 µM	
CN(C)c1ccc(/C=C2\CCCCCC2=O)cc1	> 200	26.9 µM	
COc1ccc(C(=O)c2ccc(OC)c(S(=O)(=O)OC)c2)cc1S(=O)(=O)OC	> 43.7	> 43.7 µM	
C(=C(\C[P+](c1ccccc1)(c1ccccc1)c1ccccc1)c1ccccc1)/c1ccccc1	> 200	1 µM	
OC(c1ccccc1)C(F)(F)c1nc2ccccc2o1 (stereo unspecified)	> 200	> 200 µM	
C[C@@H]1CC(O)C2(O)[C@@]13C[C@@H](OC(=O)[C@@H]3O)[C@](C)(O)[C@@]21COC1=O (stereo partly specified)			inactive
Cc1cn(C2CC(N=[N+]=[N-])C(CO)O2)c(=O)[nH]c1=O (stereo unspecified)	0.0148	0.316 µM	

SMILES	EC50 [µM]	IC50	outcome
CCn1c(=O)c2nc(SC)sc2n(-c2ccccc2)c1=O	> 200	> 200 µM	
CC(C)CCCC(C)C1CCC2[C@@H]3CCC4C[C@@H](CC=C(c5cc(Cl)c(O)c(C(=O)O)c5)c5cc(Cl)c(O)c(C(=O)O)c5)CC[C@]4(C)C3CC[C@]12C (stereo partly specified)	21.4	316 µM	
CCC1Sc2cc(OC)cc(NC=O)c2NC1=O (stereo unspecified)	174	> 200 µM	
Clc1cc2n[se]nc2cc1Cl			inactive
Cc1ccc2scc3c4ccccc4nc-3c2c1	> 200	0.479 µM	
NC(N)=N/N=C/c1c(Cl)nc2sccn12	> 200	38 µM	
Cn1c2ccc3cc2c(=S)c2cc(ccc21)OCCOCCOCCOCCOCCO3	> 200	61.7 µM	
O=C1C(=O)c2ccccc2C(O)=C1C1CCCCC1	> 263	40.7 µM	
O=C(O)CN1C(=O)c2cccc3cccc(c23)C1=O	> 200	> 200 µM	
C=CCN1C(N)=C(C#N)C(C#N)(C#N)C1CCC (stereo unspecified)	> 200	151 µM	
COc1ccc(/C=C(\C#N)c2ccccc2)cc1OC	> 70.8	> 70.8 µM	
c1ccc(C2CN3CCSC3=N2)cc1 (stereo unspecified)	> 200	> 200 µM	
CCOC(=O)/C(O)=C(/C=N\C(=S)Nc1ccccc1Cl)C(=O)OCC	> 200	> 200 µM	
OC[P+](CO)(CO)C12CC3CC(CC(C3)C1)C2	> 200	41.7 µM	
CC1=C(C(=O)NCc2ccccc2)C(c2ccc([N+](=O)[O-])cc2)C(C(=O)NCc2ccccc2)=C(C)N1	> 14.5	> 14.5 µM	
O=C1c2c(O)cccc2[C@H](O)[C@]23O[C@]12CC[C@]1(O)CCC[C@@H](O)[C@@H]13	> 20	0.977 µM	
Clc1ccc(C[P+](c2ccccc2)(c2ccccc2)c2ccccc2)c(Cl)c1	> 200	1.48 µM	
c1ccc2c(c1)nc1n2C2CCC(C2)N1 (stereo unspecified)	> 200	> 200 µM	
FC(F)(F)C(F)(F)c1nnc(C(F)(F)C(F)(F)F)o1	> 200	> 200 µM	
C(=N\Nc1nnc2c(n1)[nH]c1ccccc12)/c1ccccc1	> 200	> 200 µM	
OCC1(CO)CCC1(CO)CO			inactive
CC(C)C(O)C(=O)C(O)C(C)C (stereo unspecified)	> 1020	> 1020 µM	
